In patent US9211349B2, “Molecular probes for multimodality imaging of anionic membrane surfaces” (Molecular Targeting Technologies, Inc., priority 2012, dated 2015):

Test system: U87MG cells
Test: MTT assay, cytotoxicity of paclitaxel on U87MG cells
Assay type: cell-based, human
Protocol: A U87MG human glioblastoma cell line was obtained from the American Type Culture Collection (Manassas, Va., USA). U87MG glioma cells were grown in Dulbecco's modified medium (USC Cell Culture Core, Los Angeles, Calif., USA) supplemented with 10% fetal bovine serum at 37° C. in humidified atmosphere containing 5% CO2.
The toxicity of paclitaxel to U87MG cells was determined by a colorimetric assay with 3-(4,5-dimethylthiazol-2-yl)-2,5-diphenyl tetrazolium bromide (MTT; Alfa Aesar). All studies were performed with triplicate samples and repeated at least three times. Briefly, cells were harvested by trypsinization, resuspended in Dulbecco's modified medium, and plated in a 96-well plate at 4,000 cells per well. After treatment with different doses of paclitaxel (ranging from 1 nM to 500 nM) for 16 hours, 22 μL of 0.5 mg/mL sterile filtered MTT was added to each well. The un-reacted dye was removed after 4 hours of incubation, and the insoluble formazan crystals were dissolved in 150 μL of DMSO. The absorbance at 490 nm was measured with a microplate reader (SpectraMax M2e, Molecular Devices, CA).
FIG. 3 is a graph illustrating cytotoxicity of paclitaxel on U87MG cells determined by MTT assay. The best-fit 50% inhibitory concentration (IC50) values were calculated by fitting the data with nonlinear regression using Graph-Pad Prism 5.0 (Graph-Pad Software, San Diego, Calif.).

CC(=O)O[C@H]1C(=O)[C@@]2(C)[C@H]([C@H](OC(=O)c3ccccc3)[C@]3(O)C[C@H](OC(=O)[C@H](O)[C@@H](NC(=O)c4ccccc4)c4ccccc4)C(C)=C1C3(C)C)[C@]1(OC(C)=O)CO[C@@H]1C[C@@H]2O [paclitaxel]
sensitivity of U87MG cells to treatment (1 nM to 500 nM, 16 hours): sensitive | IC50 (Homo sapiens, U-87 MG, after 16 hours of incubation): 61.4 nM
